In patent US11236088B2, “Heterocyclic compounds and their application in medicine” (KIND PHARMACEUTICAL, priority 2017, dated 2022):

Each compound was assayed on MCF-7 cells (assay: Inhibitory effect on the growth of MCF-7 cells (CellTiter-Glo, 10 days)). Conditions: Homo sapiens, MCF7, 240 h, 10 days incubation, CellTiter-Glo chemiluminescence.
Type: cell-based
Protocol: Assay 2: Inhibitory effect of compounds of the present invention on the growth of MCF-7 cells by a cell drug inhibition experiment
1. Experimental Materials
1) Reagents: DMEM high glucose medium (Lonza #12-604F), FBS (BI #04-00F1ACS), antibiotics (Thermofisher #15070063), bovine insulin (Western reagent #11070-73-8), trypsin (Thermofisher #25200-056), CellTiter-Glo reagent (Promega #G7571)
2) Instruments: American MD-M5 microplate reader 5;
2. Experimental Procedures:
1) 100 μl of MCF-7 cells was added to a medium in a white opaque 96-well plate at a density of 5000 cells/ml in which the medium is DMEM high-glucose medium supplemented with 10% FBS. The cells were cultured in a 5% CO2 cell incubator at 37° C. for 24 hours.
2) Different concentrations of corresponding compounds were added to the 96-well plate for incubating MCF-7 cells. The cells were incubated for 10 days in a 5% CO2 cell incubator.
3) To each well of MCF-7 cells, 100 μl of CellTiter-Glo reagent was added and then set aside at room temperature for 10 minutes. The chemiluminescence signal was read using an MD-M5 microplate reader, and the data was processed using GraphPad Prism to calculate IC50 value.
Compound `CCCCCN1CC(Sc2cc(F)c([C@@H]3c4ccc5[nH]ncc5c4CN(C)[C@H]3CC3CC3)c(F)c2)C1` [Example 29, (6S, 7S)-7-cyclopropylmethyl-6-(2,6-difluoro-4-((1-pentylazetidin-3-yl)thio)phenyl)-8-methyl-6,7,8,9-tetrahydro-3H-pyrazolo [3,4-h]isoquinoline] has an IC50 greater than 1000 nM.
Compound `CC(C)C[C@H]1[C@H](c2c(F)cc(OC3CN(C=O)C3)cc2F)c2ccc3[nH]ncc3c2CN1C` [Example 30, 3-(3,5-difluoro-4-((6S, 7S)-7-isobutyl-8-methyl-6,7,8,9-tetrahydro-3H-pyrazolo [3,4-h]isoquinolin-6-yl)phenoxy) azetidin-1-aldehyde] has an IC50 of no more than 1 nM.
Work on `CC(=O)N1CC(Oc2cc(F)c([C@@H]3c4ccc5[nH]ncc5c4CN(C)[C@H]3CC(C)C)c(F)c2)C1` [Example 31, 1-(3-(3,5-difluoro-4-((6S, 7S)-7-isobutyl-8-methyl-6,7,8,9-tetrahydro-3H-pyrazolo [3,4-h]isoquinolin-6-yl)phenoxy)azetidin-1-yl) ethan-1-one] yielded an IC50 of no more than 1 nM.
With `CCC(=O)N1CC(Oc2cc(F)c([C@@H]3c4ccc5[nH]ncc5c4CN(C)[C@H]3CC(C)C)c(F)c2)C1` [Example 32, 1-(3-(3,5-difluoro-4-((6S, 7S)-7-isobutyl-8-methyl-6,7,8,9-tetrahydro-3H-pyrazolo [3,4-h]isoquinolin-6-yl)phenoxy)azetidin-1-yl) propan-1-one] the IC50 was no more than 1 nM.
With `CCCC(=O)N1CC(Oc2cc(F)c([C@@H]3c4ccc5[nH]ncc5c4CN(C)[C@H]3CC(C)C)c(F)c2)C1` [Example 33, 1-(3-(3,5-difluoro-4-((6S, 7S)-7-isobutyl-8-methyl-6,7,8,9-tetrahydro-3H-pyrazolo [3,4-h]isoquinolin-6-yl)phenoxy)azetidin-1-yl) butan-1-one] the IC50 was 10 to 1000 nM.
Work on `CC(C)C[C@H]1[C@H](c2c(F)cc(OC3CN(C(=O)C(C)C)C3)cc2F)c2ccc3[nH]ncc3c2CN1C` [Example 34, 1-(3-(3,5-difluoro-4-((6S, 7S)-7-isobutyl-8-methyl-6,7,8,9-tetrahydro-3H-pyrazolo [3,4-h]isoquinolin-6-yl)phenoxy)azetidin-1-yl)-2-methylpropan-1-one] yielded an IC50 of 1 to 10 nM.
Work on `C[C@]12CC[C@@H]3c4ccc(O)cc4C[C@@H](CCCCCCCCC[S+]([O-])CCCC(F)(F)C(F)(F)F)[C@H]3[C@@H]1CC[C@@H]2O` (stereo partly shown) [Fulvestrant, reference compound] yielded an IC50 of 10 to 1000 nM.
